Reference: patent US20120030841A1, “Isoxazoline compounds for combating invertebrate pests” (BASF SE, priority 2009, published 2012)

What was measured:
Format in all cases: in vivo
[1] = tested on: Mediterranean fruitfly (Ceratitis capitata); assay: Mediterranean fruitfly egg/larval test on insect diet, microtiter plates; settings: 120 h, sprayed onto insect diet, egg and larval mortality, 5 days, read-out: mortality in comparison with untreated controls
Procedure: (§1) The test solution was prepared the day it was used and in general at concentrations of […] (wt/vol).
For evaluating control of Mediterranean fruitfly (Ceratitis capitata) the test unit consisted of microtiter plates containing an insect diet and 50-80 C. capitata eggs.
(§2) The compounds were formulated using a solution containing 75% v/v water and 25% v/v DMSO. Different concentrations of formulated compounds were sprayed onto the insect diet at 5 μl, using a custom built micro atomizer, at two replications. After application, microtiter plates were incubated at about 28±1° C. and about 80±5% relative humidity for 5 days. Egg and larval mortality was then visually assessed.

[2] = tested on: green peach aphid (Myzus persicae); assay: Green peach aphid systemic test, artificial diet under membrane, 96-well plates; settings: 72 h, adult aphids on treated artificial diet, 3 days, read-out: mortality in comparison with untreated controls
Procedure: as §1
For evaluating control of green peach aphid (Myzus persicae) through systemic means the test unit consisted of 96-well-microtiter plates containing liquid artificial diet under an artificial membrane.
The compounds were formulated using a solution containing 75% v/v water and 25% v/v DMSO. Different concentrations of formulated compounds were pipetted into the aphid diet, using a custom built pipetter, at two replications.
After application, 5-8 adult aphids were placed on the artificial membrane inside the microtiter plate wells. The aphids were then allowed to suck on the treated aphid diet and incubated at about 23±1° C. and about 50±5% relative humidity for 3 days. Aphid mortality and fecundity was then visually assessed.

[3] = tested on: tobacco budworm (Heliothis virescens); assay: Tobacco budworm egg/larval test on insect diet, 96-well plates; settings: 120 h, sprayed onto insect diet, egg and larval mortality, 5 days, read-out: mortality in comparison with untreated controls
Procedure: as §1
as §2, with “For evaluating control of tobacco budworm (Heliothis virescens) the test unit consisted of 96-well-microtiter plates containing an insect diet and 15-25 H. virescens eggs. The” for “The”, “at 10” for “at 5”

[4] = tested on: southern armyworm (Spodoptera eridania); assay: Southern armyworm foliar spray test on lima bean plants; settings: 96 h, armyworm larvae, 4 days after treatment, read-out: mortality in comparison with untreated controls
Procedure: as §1
The active compounds were formulated in cyclohexanone as a 10,000 ppm solution supplied in tubes. The tubes were inserted into an automated electrostatic sprayer equipped with an atomizing nozzle and they served as stock solutions for which lower dilutions were made in 50% acetone:50% water (v/v). A nonionic surfactant (Kinetic®) was included in the solution at a volume of 0.01% (v/v).
Lima bean plants (variety Sieva) were grown 2 plants to a pot and selected for treatment at the 1St true leaf stage. Test solutions were sprayed onto the foliage by an automated electrostatic plant sprayer equipped with an atomizing spray nozzle. The plants were dried in the sprayer fume hood and then removed from the sprayer. Each pot was placed into perforated plastic bags with a zip closure. About 10 to 11 armyworm larvae were placed into the bag and the bags zipped closed. Test plants were maintained in a growth room at about 25° C. and about 20-40% relative humidity for 4 days, avoiding direct exposure to fluorescent light (24 hour photoperiod) to prevent trapping of heat inside the bags. Mortality and reduced feeding were assessed 4 days after treatment, compared to untreated control plants.

[5] = tested on: boll weevil (Anthonomus grandis); assay: Boll weevil egg/larval test on insect diet, 24-well plates; settings: 120 h, sprayed onto insect diet, egg and larval mortality, 5 days, read-out: mortality in comparison with untreated controls
Procedure: as §1
For evaluating control of boll weevil (Anthonomus grandis) the test unit consisted of 24-well-microtiter plates containing an insect diet and 20-30 A. grandis eggs.
The compounds were formulated using a solution containing 75% v/v water and 25% v/v DMSO. Different concentrations of formulated compounds were sprayed onto the insect diet at 20 μl, using a custom built micro atomizer, at two replications.
After application, microtiter plates were incubated at about 23±1° C. and about 50±5% relative humidity for 5 days. Egg and larval mortality was then visually assessed.

FC(F)(F)C1(c2cc(Cl)cc(Cl)c2)CC(c2ccnc3c(Br)cccc23)=NO1 (centres unmarked) [Compound 1-1, 8-bromo-4-[5-(3,5-dichloro-phenyl)-5-trifluoromethyl-4,5-di-hydroisoxazol-3-yl]-quinoline]
> 75%: mortality at 2500 ppm [1] | mortality at 2500 ppm [2] | mortality at 2500 ppm [3] | mortality at 300 ppm [4] | mortality at 2500 ppm [5]

N#Cc1cccc2c(C3=NOC(c4cc(Cl)cc(Cl)c4)(C(F)(F)F)C3)ccnc12 (centres unmarked) [Compound 1-2, 4-[5-(3,5-dichloro-phenyl)-5-trifluoromethyl-4,5-di-hydroisoxazol-3-yl]-quinoline-8-carbonitrile]
> 75%: mortality at 2500 ppm [1] | mortality at 2500 ppm [3] | mortality at 300 ppm [4] | mortality at 2500 ppm [5]

COC(=O)c1cccc2c(C3=NOC(c4cc(Cl)cc(Cl)c4)(C(F)(F)F)C3)ccnc12 (centres unmarked) [Compound 1-3, 4-[5-(3,5-dichloro-phenyl)-5-trifluoromethyl-4,5-di-hydroisoxazol-3-yl]-quinoline-8-carboxylic acid methyl ester]
> 75%: mortality at 2500 ppm [1] | mortality at 2500 ppm [5]
